Measured values taken from US10597388B2, “Pyridazinone herbicides” (FMC CORPORATION, priority 2014, dated 2020).

Legend:
Type in all cases: in vivo
[1] = system: foxtail, giant (giant foxtail, Setaria faberii); experiment: Test E greenhouse herbicide test, pre- and postemergence; conditions: Preemergence
Summary of the method: (§1)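 Herbicidal effect was judged by eye relative to untreated plants 14 to 21 d after spraying, using 0 for no effect and 100 for complete control. Preemergence sprays went onto freshly seeded silt loam; postemergence sprays onto 2–18 cm seedlings.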

[2] = system: johnsongrass (Sorghum halepense); experiment: as above; conditions: Preemergence
Summary of the method: as §1

[3] = system: nutsedge, yellow (yellow nutsedge, Cyperus esculentus); experiment: as above; conditions: Preemergence
Summary of the method: as §1

[4] = system: foxtail, green (green foxtail, Setaria viridis); experiment: as above; conditions: Preemergence
Summary of the method: as §1

[5] = system: lambsquarters (Chenopodium album); experiment: as above; conditions: Preemergence
Summary of the method: as §1

[6] = system: crabgrass, Brazilian (Brazilian crabgrass, Digitaria horizontalis); experiment: as above
Summary of the method: as §1

soybean (Glycine max) = experiment: as above
Summary of the method: as §1

[7] = system: sandbur (southem sandbur, Cenchrus echinatus); experiment: as above
Summary of the method: as §1

[8] = system: velvetleaf (Abutilon theophrasti); experiment: as above; conditions: Preemergence
Summary of the method: as §1

[9] = system: panicum, fall (fall panicum, Panicum dichotomiflorum); experiment: as above
Summary of the method: as §1

[10] = system: pigweed, palmer (palmer pigweed, Amaranthus palmeri); experiment: as above
Summary of the method: as §1

[11] = system: crabgrass, large (large crabgrass, Digitaria sanguinalis); experiment: as above; conditions: Preemergence
Summary of the method: as §1

[12] = system: dayflower (Virginia (VA) dayflower, Commelina virginica); experiment: as above
Summary of the method: as §1

corn (Zea mays) = experiment: as above
Summary of the method: as §1

kochia (Kochia scoparia) = experiment: as above
Summary of the method: as §1

[13] = system: waterhemp_RES1 (ALS & Triazine resistant common waterhemp, Amaranthus rudis); experiment: Test E greenhouse herbicide test, postemergence
Summary of the method: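 Seedlings were raised in pots of peat moss and vermiculite medium with starter nutrients until they reached the 1- to 4-leaf stage. They were then treated postemergence and held in a greenhouse for 14–21 d. Finally, response was scored visually on a 0–100 control scale.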

[14] = 62 g ai/ha, scale 0 to 100 (0 no effect, 100 complete control)
[15] = 31 g ai/ha, scale 0 to 100, 0 no effect, 100 complete control
[16] = 125 g ai/ha, visual, scale 0 no effect to 100 complete control
[17] = 250 g ai/ha, visual, scale 0 no effect to 100 complete control
[18] = 125 g ai/ha, scale 0 to 100 (0 no effect, 100 complete control)
[19] = 62 g ai/ha, Postemergence, scale 0 to 100 (0 no effect, 100 complete control)
[20] = 62 g ai/ha, Preemergence, scale 0 to 100 (0 no effect, 100 complete control)
[21] = 125 g ai/ha, Postemergence, scale 0 to 100 (0 no effect, 100 complete control)
[22] = 250 g ai/ha, Postemergence, scale 0 to 100 (0 no effect, 100 complete control)
[23] = Postemergence, 31 g ai/ha, visual, scale 0 no effect to 100 complete control
[24] = Preemergence, 31 g ai/ha, scale 0 to 100, 0 no effect, 100 complete control
[25] = Preemergence, 125 g ai/ha, visual, scale 0 no effect to 100 complete control
[26] = Preemergence, 250 g ai/ha, visual, scale 0 no effect to 100 complete control
[27] = 125 g ai/ha, Preemergence, scale 0 to 100 (0 no effect, 100 complete control)

For `Cc1cc2ccccc2c(-c2c(O)c(C)nn(C)c2=O)c1C` [Compound 34], the “Plant response rating, Foxtail, Giant” value [1, 14] was 40, the “Plant response rating, Foxtail, Giant” value [1, 15] was 5 and the “Plant response rating, Foxtail, Giant” value [1, 16] was 40. For the same molecule, the “Plant response rating, Foxtail, Giant” value [1, 17] was 65, the “Plant response rating, Johnsongrass” value [2, 14] was 0 and the “Plant response rating, Johnsongrass” value [2, 15] was 0. For the same molecule, the “Plant response rating, Johnsongrass” value [2, 16] was 0, the “Plant response rating, Johnsongrass” value [2, 17] was 0 and the “Plant response rating, Nutsedge, Yellow” value [3, 14] was 80. The “Plant response rating, Nutsedge, Yellow” value [3, 18] was 40, the “Plant response rating, Nutsedge, Yellow” value [3, 15] was 0 and the “Plant response rating, Nutsedge, Yellow” value [3, 17] was 80. The “Plant response rating, Foxtail, Green” value [4, 14] was 0, the “Plant response rating, Foxtail, Green” value [4, 15] was 0 and the “Plant response rating, Foxtail, Green” value [4, 16] was 25. The “Plant response rating, Foxtail, Green” value [4, 17] was 65, the “Plant response rating, Lambsquarters” value [5, 14] was 100 and the “Plant response rating, Lambsquarters” value [5, 15] was 10. For the same molecule, the “Plant response rating, Lambsquarters” value [5, 16] was 100, the “Plant response rating, Lambsquarters” value [5, 17] was 98 and the “Plant response rating, Crabgrass, Brazil” value [6, 19] was 40. For the same molecule, the “Plant response rating, Crabgrass, Brazil” value [6, 20] was 10, the “Plant response rating, Crabgrass, Brazil” value [6, 21] was 50 and the “Plant response rating, Crabgrass, Brazil” value [6, 22] was 50. For the same molecule, the “Plant response rating, Crabgrass, Brazil” value [6, 23] was 40, the “Plant response rating, Crabgrass, Brazil” value [6, 24] was 0 and the “Plant response rating, Crabgrass, Brazil” value [6, 25] was 80. The “Plant response rating, Crabgrass, Brazil” value [6, 26] was 80, the “Plant response rating, Soybean” value (soybean (Glycine max); [19]) was 40 and the “Plant response rating, Soybean” value (soybean (Glycine max); [20]) was 35. The “Plant response rating, Soybean” value (soybean (Glycine max); [21]) was 70, the “Plant response rating, Soybean” value (soybean (Glycine max); [27]) was 15 and the “Plant response rating, Soybean” value (soybean (Glycine max); [22]) was 60. The “Plant response rating, Soybean” value (soybean (Glycine max); [23]) was 35, the “Plant response rating, Soybean” value (soybean (Glycine max); [24]) was 0 and the “Plant response rating, Soybean” value (soybean (Glycine max); [26]) was 0. For the same molecule, the “Plant response rating, Sandbur” value [7, 19] was 80, the “Plant response rating, Sandbur” value [7, 20] was 40 and the “Plant response rating, Sandbur” value [7, 21] was 85. For the same molecule, the “Plant response rating, Sandbur” value [7, 27] was 65, the “Plant response rating, Sandbur” value [7, 22] was 90 and the “Plant response rating, Sandbur” value [7, 23] was 70. For the same molecule, the “Plant response rating, Sandbur” value [7, 24] was 0, the “Plant response rating, Sandbur” value [7, 26] was 70 and the “Plant response rating, Velvetleaf” value [8, 14] was 90. The “Plant response rating, Velvetleaf” value [8, 18] was 100, the “Plant response rating, Velvetleaf” value [8, 15] was 20 and the “Plant response rating, Velvetleaf” value [8, 17] was 100. For the same molecule, the “Plant response rating, Panicum, Fall” value [9, 19] was 65, the “Plant response rating, Panicum, Fall” value [9, 20] was 80 and the “Plant response rating, Panicum, Fall” value [9, 21] was 70. For the same molecule, the “Plant response rating, Panicum, Fall” value [9, 27] was 90, the “Plant response rating, Panicum, Fall” value [9, 22] was 60 and the “Plant response rating, Panicum, Fall” value [9, 23] was 50. For the same molecule, the “Plant response rating, Panicum, Fall” value [9, 24] was 70, the “Plant response rating, Panicum, Fall” value [9, 26] was 95 and the “Plant response rating, Pigweed, Palmer” value [10, 19] was 80. The “Plant response rating, Pigweed, Palmer” value [10, 20] was 0, the “Plant response rating, Pigweed, Palmer” value [10, 21] was 65 and the “Plant response rating, Pigweed, Palmer” value [10, 27] was 90. The “Plant response rating, Pigweed, Palmer” value [10, 22] was 75, the “Plant response rating, Pigweed, Palmer” value [10, 23] was 50 and the “Plant response rating, Pigweed, Palmer” value [10, 24] was 0. For the same molecule, the “Plant response rating, Pigweed, Palmer” value [10, 26] was 90, the “Plant response rating, Crabgrass, Large” value [11, 14] was 0 and the “Plant response rating, Crabgrass, Large” value [11, 15] was 0. For the same molecule, the “Plant response rating, Crabgrass, Large” value [11, 16] was 50, the “Plant response rating, Crabgrass, Large” value [11, 17] was 20 and the “Plant response rating, Dayflower, VA” value [12, 19] was 80. The “Plant response rating, Dayflower, VA” value [12, 20] was 35, the “Plant response rating, Dayflower, VA” value [12, 21] was 90 and the “Plant response rating, Dayflower, VA” value [12, 22] was 90. The “Plant response rating, Dayflower, VA” value [12, 23] was 60, the “Plant response rating, Dayflower, VA” value [12, 24] was 35 and the “Plant response rating, Dayflower, VA” value [12, 25] was 70. The “Plant response rating, Dayflower, VA” value [12, 26] was 90, the “Plant response rating, Corn” value (corn (Zea mays); [19]) was 0 and the “Plant response rating, Corn” value (corn (Zea mays); [20]) was 0. The “Plant response rating, Corn” value (corn (Zea mays); [21]) was 0, the “Plant response rating, Corn” value (corn (Zea mays); [22]) was 5 and the “Plant response rating, Corn” value (corn (Zea mays); [23]) was 0. For the same molecule, the “Plant response rating, Corn” value (corn (Zea mays); [24]) was 0, the “Plant response rating, Corn” value (corn (Zea mays); [25]) was 0 and the “Plant response rating, Corn” value (corn (Zea mays); [26]) was 0. The “Plant response rating, Kochia” value (kochia (Kochia scoparia); [19]) was 98, the “Plant response rating, Kochia” value (kochia (Kochia scoparia); [20]) was 5 and the “Plant response rating, Kochia” value (kochia (Kochia scoparia); [21]) was 85. The “Plant response rating, Kochia” value (kochia (Kochia scoparia); [22]) was 85, the “Plant response rating, Kochia” value (kochia (Kochia scoparia); [23]) was 70 and the “Plant response rating, Kochia” value (kochia (Kochia scoparia); [24]) was 0. The “Plant response rating, Kochia” value (kochia (Kochia scoparia); [25]) was 5, the “Plant response rating, Kochia” value (kochia (Kochia scoparia); [26]) was 85 and the “Plant response rating, Waterhemp_RES1” value ([13]; 31 g ai/ha, visual, scale 0 no effect to 100 complete control) was 90. For the same molecule, the “Plant response rating, Waterhemp_RES1” value [13, 14] was 90, the “Plant response rating, Waterhemp_RES1” value [13, 18] was 90 and the “Plant response rating, Waterhemp_RES1” value ([13]; 250 g ai/ha, scale 0 to 100 (0 no effect, 100 complete control)) was 95.
